Results on three substances are retold here after patent US10889812B2, “Short non-coding protein regulatory RNAs (sprRNAs) and methods of use” (University of Maryland, Baltimore, priority 2014, dated 2021).

The subject of one data set is MDM2. As to the kind of experiment: Western blot of MDM2 cleavage and phosphorylation in SCC cells. The format is cell-based, human. As to conditions: SCC cells pre-treated, upon CDDP treatment. From the text: (§1) Primary antibodies used were: anti-Moesin (1:1,000, Clone Q480, Catalog No. 3150, Cell Signaling), anti-p-ERM (Clone 41A3, Catalog No. 3149, Cell Signaling), anti-Moesin (Clone 38/Moesin, Catalog No. 610401, BD Transduction Laboratories), anti-p-Moesin (Thr558, Catalog No. 12895, Sanra Cruz), anti-β-actin (1:5,000, Catalog No. A228, Sigma-Aldrich), anti-EBP50 (1:100, Clone 6/EBP50, Catalog No. 61160, BD Transduction Laboratories), anti-F-actin (1:100, Clone NH3, Catalog No. MA1-80729, Thermor Fisher), anti-p-Wee 1 (Se53, 1:1000, Catalog No. sc-130223, Sanra Cruz), anti-Wee 1 (C-20, 1:1000, Catalog No. sc-325, Sanra Cruz), anti-p-Cdc2 (Tyr15, 1:1000, Catalog No. 9111, Cell Signaling), anti-p-Cdk (Thr14/Tyr15-R, 1:1000, Catalog No. sc-28435-R, Sanra Cruz), anti-Cdc2 p34 (H-297, 1:1000, Catalog No. sc-747, Sanra Cruz), anti-p-Cdc25C (Ser198, 1:1000, Catalog No. 9529, Cell Signaling), anti-CDK2 (78B2, 1:1000, Catalog No. 2546, Cell Signaling), anti-p-Histone H2AX (Ser139, 20E3, :1000, Catalog No. 9718, Cell Signaling), and anti-GFP (N-terminal, 1:4000, Catalog No. G1544, Sigma). Secondary antibodies used were: Goat anti-Mouse (1:2,500, Catalog No. 31160, Pierce), and Goat anti-Rabbit (1:2,500, Catalog No. 31460, Pierce). Cells were lysed in RIPA buffer (Sigma) on ice after washed in PBS twice, centrifuge at […] for 10 min at 4° C. Protein in supernatant was qualified using BCA™ protein assay kit (Thermo Scitific) and denatured in SDS loading buffer in boiling water, run 10% SDS-PAGE gel and transferred to nitrocellulose membrane (Thermo Scitific). […]
Next, we wanted to explore potential mechanism of piR-L-138-mediated apoptosis inhibition in CDDP treated lung SCC cells. We first analyzed cleaved PARP, a protein marker indicative of apoptosis, and found it was increased in the SCC cells pre-treated with Ant-138 compared with Scr pre-treated cells (FIG. 15d). As both of the SCC cell lines harbor p53 mutations, we analyzed mouse double minute 2 homolog (MDM2) which has been implicated in apoptosis including p53-independent pathway (Bohlman S, Manfredi J J. p53-independent effects of Mdm2. Subcell Biochem. 85,235-46 (2014); Bouska A, Eischen C M. Mdm2 affects genome stability independent of p53. Cancer Res. 69, 1697-701 (2009); Zhang, Z., Li, M., Wang, H., Agrawal, S., and Zhang, R. Antisense therapy targeting MDM2 oncogene in prostate cancer: Effects on proliferation, apoptosis, multiple gene expression, and chemotherapy. Proc. Natl. Acad. Sci. 100, 11636-11641 (2003); Zhang Z, Wang H, Li M, Agrawal S, Chen X, Zhang R. MDM2 Is a Negative Regulator of p21WAF1/CIP1, Independent of p53. […]
In general terms: Immunoblotting shows a protein as a band on a membrane.

The next data set concerns H157 tumor xenograft. As to the kind of experiment: H157 tumor xenograft model, intra-tumor injection of Ant-138 with CDDP. The format is in vivo, mice. From the text: To further validate the interaction between piR-L-138 and MDM2 at the individual cell level, we performed fluorescence in situ hybridization (FISH) assay using a digoxin (DIG)-labelled RNA probe complimentary to piR-L-138 and an anti-MDM2 antibody. We first tested the probes in HBE4 cells which express high levels of piR-L-138 to ensure the sensitivity and specificity of the piR-L-138 probe and MDM2 antibody (FIG. 16c). […] This is consistent with the observed up-regulation of piR-L-138 in SCC cells upon CDDP treatment and the interaction between piR-L-138 and MDM2. Next, we used H157 tumor xenograft model to determine if targeting piR-L-138 can enhance CDDP-mediated tumor cell apoptosis in SCC in vivo. In this proof of principle experiment, we used intra-tumor injection of Ant-138 (SEQ ID NO:556) which was formulated with MaxSuppr in vivo RNALancerll as described previously (Wiggins J F, et al. Development of a Lung Cancer Therapeutic Based on the Tumor Suppressor MicroRNA-34. Cancer Res. 70, 5923-30(2010)) due to the requirement of very large quantity of formulated reagents needed for systemic delivery. […] Since we were using local injection with sub-optimal dose, such modest anti-tumor activity was expected. We were focusing on determining if Ant-138 increased apoptosis at the sites of injection by analyzing tumor tissue sections for cleaved caspase 3 as an indicator of apoptosis and Ant-138.

The test system of a further data set is SCC cells. As to the kind of experiment: Annexin V staining assay, CDDP-induced apoptosis. In kind it is cell-based, human. The note with it: pre-treated SCC cells, vs Scr pre-treated. An excerpt:
(§2) To determine if the increased piR-L-138 plays a functional role in CDDP treated SCC cells, we used DNA antisense oligos of piR-L-138 (Ant-138) to block piR-L-138 in H157 and SKMES-1 cells. Six hours after Ant-138 treatment, we treated the cells with CDDP (IC25 dose).

The test system of another data set is cleaved PARP. In words: Western blot of cleaved PARP in CDDP treated SCC cells. The note with it: pre-treated SCC cells plus CDDP, vs Scr. The format is cell-based, human.
Excerpt: as §1, with “C.” for “C. Protein in supernatant was qualified using BCA™ protein assay kit (Thermo Scitific) and denatured in SDS loading buffer in boiling water, run 10% SDS-PAGE gel and transferred to nitrocellulose membrane (Thermo Scitific).”

In data set [1] the test system is H157 and SKMES-1 cells. In words: Flow cytometry, sub-G1 phase after CDDP. In kind it is cell-based, human. The note with it: Ant-138 then CDDP (IC25 dose) six hours later, vs Scr. Here is the method: Cell cycle distribution was analyzed by Flow Cytometry (Becton-Dickinson). Cells were synchronized in growth factor-free Keratinocyte-SFM with 2 mM Thymidine (Catalog No. T1895, Sigma-Aldrich) for 24 hrs. Transfection is performed using Lipofectamine™ RNAiMAX (Invitrogen) according to its manual, and the final concentration of annealed oligo RNAs is 400 nM. Four hour after transfection, culture medium was replaced by complete Keratinocyte-SFM supplemented with L-Glutamine, prequalified human recombinant EGF 1-53 and BPE. Cells were harvested at different time points, washed in phosphate-buffer saline (PBS), fixed with ice-cold 70% ethanol, and strained in PI/RNase solution (BD Pharmigen). The samples were analyzed on a FACScan flow cytometer in combination with BD lysis software (Becton-Dickinson).
as §2
Background: Flow cytometry measures light scatter and fluorescence of single cells or particles in a stream.

Data set [2] concerns H157 and SKMES-1 cells. As to the kind of experiment: MTT assay, cell killing by CDDP after Ant-138. The format is cell-based, human. The note with it: Ant-138 then CDDP (IC25 dose) six hours later, vs Scr pre-treated. Here is the method: Cell viability and cell growth curve assay were determined by MTT assay and trypan blue exclusion assay, respectively as described previously (Kirino, Y. & Mourelatos, Z. Mouse Piwi-interacting RNAs are 2′-O-methylated at their 3′ termini Nat Struct Mol Biol. 14, 347-348 (2007)). BrieflySpecifically, MTT (5 mg/ml) was added into cells and incubated at culture condition for 3 hours, removed the medium carefully and dissolved formazan in DMSO, assay was used to assess the surviving cells and OD values were measured using Microplate Reader Manager (Bio Rad) at wavelengths of 570/690 nm. For trypan blue exclusion assay, cells were washed in PBS for three times, and dyed in 0.4% tyrpan blue solution. Unstained viable cells were counted in hemocytometer chamber under microscope. Each experiment was performed three times independently.
as §2
On the technique in general: Tetrazolium dyes change colour on reduction, which living cells bring about.

The next data set has as its system LAMC2. As to the kind of experiment: LAMC2 expression by real time RT-PCR in HBE4 cells. The format is cell-based, human. From the text:
FIG. 11. Expression of piR-L-163 in NSCLC and HBE cell lines measured by real time RT-PCR. (a) piR-L-163 expression levels in individual cell lines. (b) piR-L-163 express ion levels in HBE, ADC and SCC as groups. All the values are averages of four independent replicates, error bars represent mean s.d., and * indicates p<0.01 by Student's t-test. (c) LAMC2 express ion levels in HBE4 cells measured by real time RT-PCR in the conditions as labeled. Values are averages of three independent replicates, error bars represent mean s.d., and ** indicates p<0.05 by Student's t-test.
We then wanted to determine whether piR-L-163 (SEQ ID NO:282) plays a functional role in human bronchial epithelial cells. We treated HBE4 cells as well as primary normal human bronchial epithelial (NHBE) cells with piR-L-163 complementary DNA oligonucleotides (Ant-163) (SEQ ID NO:496) or RNA oligonucleotides (Ant-163R) (SEQ ID NO:497) in the experiment. […] Cell cycle distributions were measured every 2 hrs.

The next data set deals with phosphor-proteins. As to the kind of experiment: Western blots of phosphorylated proteins (p-Tyrosine, p-Theronin/Serine). In kind it is cell-based, human. As to conditions: lung SCC cells treated with the DNA oligo. From the text: (§3) To test the potential impact of the candidate sprRNAs identified by phosphor-protein binding in the phosphorylation status of the proteins, we selected a panel of 5 sprRNAs with sizes ranging from 25-50 nt but sharing a common 25 nt sequence and used DNA oligo complementary to the common sequence (5′-[…]-3′) (SEQ ID NO:489) to block these sprRNAs.

For another data set, the system named is lung SCC cell lines. As to the kind of experiment: MTT cell viability after DNA oligo blocking 5 sprRNAs. The format is cell-based, human. The note with it: twenty-four hours after treatment, 4 lung SCC cell lines.
Excerpt: as §3

For “Ant-138: DNA sequence that is antisense to piR-L-138, SEQ ID NO:556 (antisense AGGTCTCAGAGTAATTCTAGAGCTAAAGT; listed as DNA, chemistry not given here)”, in the data set with MDM2, the MDM2 cleavage result is on record as “substantially reduced MDM2 cleavage” and the “serine-166 phosphorylation in the cleaved MDM2” value is reported as “increase of serine-166 phosphorylation in the cleaved MDM2”. Moreover, in the data set on H157 tumor xenograft (tumors treated with CDDP and Ant-138), the “caspase 3 positive tumor cells by Ant-138 level (immunofluorescence)” value is on record as “significantly concentrated caspase 3 positive tumor cells in areas with high levels of Ant-138”. The tumor size entry with H157 tumor xenograft (with CDDP, intra-tumor injection, vs untreated and CDDP plus Scr) was “smaller but the difference was only border line statistically”. Further, the “expression of cleaved caspase 3 in tumors” value in the data set with H157 tumor xenograft (with CDDP, vs CDDP and Scr control) is on record as “higher expression of cleaved caspase 3”. Moreover, the “sensitivity to CDDP-induced apoptosis (annexin V)” value in the data set on SCC cells is “more sensitive to CDDP-induced apoptosis”. In the data set with cleaved PARP, the “cleaved PARP” value is “increased”. Also, the “proportion of the sub-G1 phase” value in the data set on H157 and SKMES-1 cells [1] is given as “substantially increased proportion of the sub-G1 phase”. In the data set on H157 and SKMES-1 cells [2], the “cell killing (MTT)” value is “significantly increased cell killing”.
As to “Ant-163R: piR-L-163 complementary RNA oligonucleotides, SEQ ID NO:497 (antisense GGUCAGAGAAUCAAAGUAACAUCAUGAUAU; listed as RNA, chemistry not given here)”, in the data set with LAMC2, the “expression levels of LAMC2” value is recorded as “reduced expression levels of LAMC2”.
Take “DNA oligo complementary to the common sequence: DNA sequence antisense to SEQ ID NO:489 (AntiC, SEQ ID NO:558), blocks 5 sprRNAs sharing a common 25 nt sequence (antisense CGAACCCGGGCCGCGGCGGTGAGA; DNA, backbone and methylation of C not given here)”: the “levels of phosphorylated proteins” value in the data set with phosphor-proteins was “changes of levels in certain phosphor-proteins”. For the same substance, in the data set on lung SCC cell lines, the “cell viability (MTT)” value is reported as “significant growth inhibition”.
